Experimental data reported in US20130165368A1, “ANTIMICROBIAL COMPOUNDS” (priority 2010, published 2013).
Values after ≈ are worked out from the molar mass of the structure shown. Where two headings read alike, the source gives them in different places.

Experiments:
Assay type in all cases: cell-based
MRSA FIN 54518 (E7) = assay: MIC agar dilution, MRSA strain 31; details: Staphylococcus aureus
Description: (§1) Molar equivalent concentrations were used to allow comparison between compounds of differing molecular mass. Due to weighing difficulties, any compound in solid form was melted in a water bath prior to dilution. To make ten-times strength concentrations, which takes into account agar dilution, 0.0352 mmol of each compound was weighed into plastic universal bottles and 4 mL of sterile distilled water (SDW) was added. To produce a homogenous emulsion the universals were vortexed; once achieved the emulsions were serial diluted by adding 2 mL to 2 mL of SDW.
(§2) For every 100 mL of Isosensitest agar (IST) (CM0471; Oxoid, Basingstoke, England), 3.1 g of the IST powder was added to 100 mL SDW (as per manufacturer's instructions) and sterilised for 15 minutes at 121° C. Once sterilised, the molten agar was cooled to 50° C. in a water-bath. Subsequently 4.8 g of CCEY powder (BC2160; Bioconnections, Wetherby, England), also known as Brazier's medium, was added to 100 mL SDW for every 100 mL of agar needed. This was then sterilised for 15 minutes at 121° C. Once sterilised the molten agar was cooled to 50° C. in a water-bath and 4 mL of egg-yolk emulsion (S2073; TCS Biosciences Ltd, Buckingham, United Kingdom) and 1 mL of lysed defibrinated horse blood (HB035; TCS Biosciences Ltd, Buckingham, United Kingdom) were also added for every 100 mL needed. Horse blood lysis is achieved by dilution to half concentration with SDW; when fully lysed the mixture will turn dark red in colour.
(§3) 18 mL agar was added to each universal and then poured into sterile Petri dishes. This step creates a 1/10 dilution resulting in agar plates of the required strength. Control plates for each set of strains were created by adding 18 mL of agar to 2 mL of SDW.
(§4) Suspensions of each bacterial species were prepared with a density equal to that of a 0.5 McFarland standard using a densitometer. All suspensions were made using sterile distilled water and fresh 18-20 hour cultures. As a 0.5 McFarland standard contains 1.5×10^8 CFU/mL and the multipoint inoculators applies 1 μL spots of liquid, each bacterial suspension was diluted 1/15 (20 μL suspension to 280 μL sterile distilled water).
(§5) Bacterial suspensions were prepared from fresh 18-24 hour cultures as previously described. 1 μL of each strain was inoculated onto all 100 agar plates containing a different chemical concentration and the 2 control plates. This was done using a multipoint inoculator which inoculates 20 strains per plate. All plates were incubated for 22 hours at 37° C. in aerobic conditions.
(§6) Each plate was examined for bacterial growth after 22 and 48 hours, with each being incubated in between examinations. A positive result was recorded as growth of ≧10 colonies. A negative result was recorded as growth of <10 colonies as this is equivalent to 99.9% inhibition. The lowest concentration of chemical that inhibited growth was recorded as the MIC. The results are recorded in Table IV below, where the numbers are quoted in mmol/L.
(§7) Given the positive performance of the ethoxylates of lauryl alcohol in reducing the MIC for a number of the micro-organisms tested, further MIC testing of Laureth-1 [C12E1] through to Laureth-8 [C12E8] was conducted on each of the following: • 10 strains of vancomycin-resistant enterococci (VRE)—listed in Table V below; and • 20 strains of methicillin-resistant Staphylococcus aureus (MRSA)—listed in Table VI.
(§8) The alkanol, alkanol derivatives, agar plates, and inocula were all prepared in the same way as described above.
(§9) The plates were examined in the same manner as described above and the results are recorded in Table VII below, where the numbers are quoted in mmol/L.

MRSA EMRSA 16 07924/95 = assay: MIC agar dilution, MRSA strain 49; details: Staphylococcus aureus
Description: as §1, §2, §3, §4, §5, §6, §7, §8, §9

[1] = test system: Staphylococcus aureus (MRSA); assay: MIC agar dilution, micro-organism 12 (11939); details: Staphylococcus aureus (MRSA) 11939, read-out: MIC
Summary of the method: (§10)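 Agar dilution in Isosensitest/CCEY agar with egg yolk and lysed horse blood; compounds as aqueous emulsions (myristyl and lauryl alcohol with 1-methyl-2-pyrrolidone and Tween 20). 1 µL spots of 1/15-diluted 0.5 McFarland suspensions, 37 °C aerobic, read at 22 and 48 h; MIC (mmol/L) is lowest concentration giving <10 colonies.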

Enterococcus faecalis = assay: MIC agar dilution, micro-organism 17 (775); details: Enterococcus faecalis 775, read-out: MIC
Summary of the method: as §10

Staphylococcus aureus = assay: MIC agar dilution, micro-organism 13 (6571); details: Staphylococcus aureus 6571, read-out: MIC
Summary of the method: as §10

[2] = test system: Enterococcus faecium (VRE) MB 305; assay: MIC agar dilution, VRE strain 25
Description: as §1, §2, §3, §4, §5, §6, §7, §8, §9

Escherichia coli = assay: MIC agar dilution, micro-organism 1 (10418); details: Escherichia coli 10418, read-out: MIC
Summary of the method: as §10

MRSA FIN 54511 (E6) = assay: MIC agar dilution, MRSA strain 32; details: Staphylococcus aureus
Description: as §1, §2, §3, §4, §5, §6, §7, §8, §9

Bacillus subtilis = assay: MIC agar dilution, micro-organism 18 (9372); details: Bacillus subtilis 9372, read-out: MIC
Summary of the method: as §10

MRSA NCTC 11939 = assay: MIC agar dilution, MRSA strain 50; details: Staphylococcus aureus, MRSA strain 50 NCTC 11939
Description: as §1, §2, §3, §4, §5, §6, §7, §8, §9

[3] = test system: Enterococcus faecium (VRE) MB 3137; assay: MIC agar dilution, VRE strain 26
Description: as §1, §2, §3, §4, §5, §6, §7, §8, §9

[4] = test system: Enterococcus casseliflavus (VRE) Clin waste; assay: MIC agar dilution, VRE strain 23
Description: as §1, §2, §3, §4, §5, §6, §7, §8, §9

Providencia rettgeri = assay: MIC agar dilution, micro-organism 3 (7475); details: Providencia rettgeri 7475, read-out: MIC
Summary of the method: as §10

[5] = Staphylococcus aureus, MRSA, 22 h, 22 hrs
[6] = Staphylococcus aureus, MRSA, 48 h, 48 hrs
[7] = Staphylococcus aureus, 22 h, 22 hrs
[8] = Staphylococcus aureus, 48 h, 48 hrs

Row | SMILES | MIC (MRSA FIN 54518 (E7); 22 hrs) [µM] | MIC (MRSA FIN 54518 (E7); 48 hrs) [µM] | MIC (MRSA EMRSA 16 07924/95; 22 hrs) [µM] | MIC (MRSA EMRSA 16 07924/95; 48 hrs) [µM] | MIC (Enterococcus faecalis; 22 hrs) [µM] | MIC (Enterococcus faecalis; 48 hrs) [µM] | MIC ([2]; 22 hrs) [µM] | MIC ([2]; 48 hrs) [µM] | MIC (Escherichia coli; 22 hrs) [µM] | MIC (Escherichia coli; 48 hrs) [µM] | MIC (MRSA FIN 54511 (E6); 22 hrs) [µM] | MIC (MRSA FIN 54511 (E6); 48 hrs) [µM] | MIC (Bacillus subtilis; 22 hrs) [µM] | MIC (Bacillus subtilis; 48 hrs) [µM] | MIC (MRSA NCTC 11939; 22 hrs) [µM] | MIC (MRSA NCTC 11939; 48 hrs) [µM] | MIC ([3]; 22 hrs) [µM] | MIC ([3]; 48 hrs) [µM] | MIC ([4]; 22 hrs) [µM] | MIC ([4]; 48 hrs) [µM] | further results
1 | CCCCCCCCCCCCOCCOCCOCCOCCOCCOCCOCCO [L7, Heptaethylene Glycol Monododecyl Ether] | > 440 | > 440 | > 440 | > 440 | 110 (≈ 54.4 µg/mL) | 110 (≈ 54.4 µg/mL) | 220 (≈ 109 µg/mL) | 220 (≈ 109 µg/mL) | > 880 | > 880 | 110 (≈ 54.4 µg/mL) | 440 (≈ 218 µg/mL) | 110 (≈ 54.4 µg/mL) | 110 (≈ 54.4 µg/mL) | 110 (≈ 54.4 µg/mL) | 110 (≈ 54.4 µg/mL) | > 880 | > 880 | 220 (≈ 109 µg/mL) | 220 (≈ 109 µg/mL) | MIC ([1]; 22 hrs): 220 µM (≈ 109 µg/mL); MIC ([1]; 48 hrs): 220 µM (≈ 109 µg/mL); MIC (Staphylococcus aureus; 22 hrs): 110 µM (≈ 54.4 µg/mL); MIC (Staphylococcus aureus; 48 hrs): 110 µM (≈ 54.4 µg/mL); MIC (Providencia rettgeri; 22 hrs): > 880 µM; MIC (Providencia rettgeri; 48 hrs): > 880 µM
2 | CCCCCCCCCCCCOCCOCCOCCOCCOCCOCCO [L6, Hexaethylene Glycol Monododecyl Ether] | > 440 | > 440 | 110 (≈ 49.6 µg/mL) | 110 (≈ 49.6 µg/mL) | 110 (≈ 49.6 µg/mL) | 110 (≈ 49.6 µg/mL) | 220 (≈ 99.1 µg/mL) | 220 (≈ 99.1 µg/mL) | > 880 | > 880 | 110 (≈ 49.6 µg/mL) | 110 (≈ 49.6 µg/mL) | 110 (≈ 49.6 µg/mL) | 110 (≈ 49.6 µg/mL) | 110 (≈ 49.6 µg/mL) | 110 (≈ 49.6 µg/mL) | 880 (≈ 397 µg/mL) | > 880 | 220 (≈ 99.1 µg/mL) | 220 (≈ 99.1 µg/mL) | MIC [1, 5]: 110 µM (≈ 49.6 µg/mL); MIC [1, 6]: 110 µM (≈ 49.6 µg/mL); MIC (Staphylococcus aureus; [7]): 110 µM (≈ 49.6 µg/mL); MIC (Staphylococcus aureus; [8]): 110 µM (≈ 49.6 µg/mL); MIC (Providencia rettgeri; 22 hrs): > 880 µM; MIC (Providencia rettgeri; 48 hrs): > 880 µM
3 | CCCCCCCCCCCCOCCO [L1, Ethylene Glycol Monododecyl Ether] | 220 (≈ 50.7 µg/mL) | 440 (≈ 101 µg/mL) | 220 (≈ 50.7 µg/mL) | 220 (≈ 50.7 µg/mL) | 440 (≈ 101 µg/mL) | 440 (≈ 101 µg/mL) | 440 (≈ 101 µg/mL) | 880 (≈ 203 µg/mL) | 220 (≈ 50.7 µg/mL) | 220 (≈ 50.7 µg/mL) | 220 (≈ 50.7 µg/mL) | 220 (≈ 50.7 µg/mL) | 440 (≈ 101 µg/mL) | 440 (≈ 101 µg/mL) | 220 (≈ 50.7 µg/mL) | 220 (≈ 50.7 µg/mL) | 440 (≈ 101 µg/mL) | 440 (≈ 101 µg/mL) | 220 (≈ 50.7 µg/mL) | 220 (≈ 50.7 µg/mL) | MIC [1, 5]: 440 µM (≈ 101 µg/mL); MIC [1, 6]: 440 µM (≈ 101 µg/mL); MIC (Staphylococcus aureus; [7]): 220 µM (≈ 50.7 µg/mL); MIC (Staphylococcus aureus; [8]): 220 µM (≈ 50.7 µg/mL); MIC (Providencia rettgeri; 22 hrs): > 880 µM; MIC (Providencia rettgeri; 48 hrs): > 880 µM
4 | CCCCCCCCCCCCOCCOCCOCCOCCOCCOCCOCCOCCO [L8, Octaethylene Glycol Monododecyl Ether] | > 440 | > 440 | > 440 | > 440 | 110 (≈ 59.3 µg/mL) | 110 (≈ 59.3 µg/mL) | > 880 | > 880 | > 880 | > 880 | 220 (≈ 119 µg/mL) | > 440 | 110 (≈ 59.3 µg/mL) | 110 (≈ 59.3 µg/mL) | 220 (≈ 119 µg/mL) | 220 (≈ 119 µg/mL) | > 880 | > 880 | 440 (≈ 237 µg/mL) | 440 (≈ 237 µg/mL) | MIC [1, 5]: 220 µM (≈ 119 µg/mL); MIC [1, 6]: 440 µM (≈ 237 µg/mL); MIC (Staphylococcus aureus; [7]): 110 µM (≈ 59.3 µg/mL); MIC (Staphylococcus aureus; [8]): 110 µM (≈ 59.3 µg/mL); MIC (Providencia rettgeri; 22 hrs): > 880 µM; MIC (Providencia rettgeri; 48 hrs): > 880 µM
